Results on one compound are retold here after the NIST ThermoML archive (doi:10.1016/j.jct.2016.06.032).

± gives the expanded uncertainty stated by the source.

For series [1] the following is noted: Crystal; DTA.
The nature of series [2]: Molar enthalpy of transition or fusion. The conditions noted are these: Crystal; DSC.

`N#Cc1ccccc1-c1ccc(CBr)cc1` [4'-(bromomethyl)-2-cyanobiphenyl]: the Normal melting temperature in series [1] was determined as 125.90 ± 1.1 °C. Besides, the “Molar enthalpy of transition or fusion” value in series [2] amounted to 7 ± 0.454 kcal/mol.
